# From US20250160327A1, “USE OF CHROMENE OR CHROMANE DERIVATIVES AS HERBICIDAL AGENTS” (ECOLE POLYTECHNIQUE, priority 2022, published 2025)
# Test system: Arabidopsis thaliana ecotype Col-0 seedlings
# Experiment: Phytotoxicity test on Arabidopsis thaliana seedlings in hydroponics, visual analysis of chlorosis
# Format: in vivo
# Settings: for herbicidal activity: at the concentration tested (125 pM), 48 h; for Activity after 48h: herbicidal activity, concentration of 125 pM, 48 h after application, seedlings at the cotyledon stage, max 1% DMSO
# Experimental: Biological tests have been carried out under axenic conditions on Arabidopsis thaliana ecotype Col-0 seedlings cultured in hydroponics at the cotyledon stage. Sterilised seeds have been sown in microplates (10 seeds per well containing 200 μL of distilled water) and cultured for 10-13 days at 22° C. under a 16 h/8 h (day/night) photoperiod lighting. The treatment has been carried out by replacing the culture medium with an equivalent volume of water containing the molecule to be tested dissolved in DMSO. The maximum DMSO concentration in the treated wells was 1% by volume. A control has therefore been set up with the presence of DMSO at this concentration. The phytotoxicity of the treatment has been evaluated after 48 h of culture, by visual analysis of the chlorosis induced.
# By way of comparison, tests have also been carried out under the same conditions as for compounds (Ia1), (Ia2), (Ia3) and (IC1), but with two comparative compounds not forming part of the invention: • a compound (2) including a diphenol ring in place of the chromene ring, and • a compound (3) including a chromene ring but not including an -L-Ar group. All compounds have been tested at a concentration of 125 pM.
# Herbicidal activity is indicated by A for Active in the event that the plant is killed, i.e. when both cotyledons have lost all their green coloration, 48 h after application of the product.
# The absence of herbicidal activity is indicated by “N” for Not active, in the case where no biological activity is observed
smiles,measurement,value
Cc1cc(O)c2c(c1)OC(C)(C)C=C2 [Compound 3],herbicidal activity,no herbicidal activity
same,Activity after 48h,N
Oc1cc(O)cc(CCc2ccccc2)c1 [Compound 2],herbicidal activity,no herbicidal activity
same,Activity after 48h,N
